Earlier results on one substance are cited in patent publication US20070243563A1, “Aflatoxin-albumin adduct measurement and the uses thereof” (priority 2000, published 2007).

One series relates to rats. The settings on record: rat, in vivo.

For the substance Aflatoxin B1 [AFB1], the IARC carcinogen classification entry in the series with humans was “Group 1 carcinogens”. For the same substance, in the series on rats, the TD50 is given as 9.3×10^−4 mg/kg per day and the “carcinogenic potency relative to benzo(a)pyrene” value is recorded as 1000 times.
